Experimental data reported in patent EP0508511B1 (KNOLL AG, priority 1991, dated 1992).

System: wacher normotoner Hunde
Test: Diastolic blood pressure in conscious normotensive dogs
Type: in vivo
Conditions: Trandolapril alone, 3 mg/kg/Tag

CCOC(=O)[C@H](CCc1ccccc1)N[C@@H](C)C(=O)N1[C@H](C(=O)O)C[C@H]2CCCC[C@@H]21 [Trandolapril, N-(1s-Carbethoxy-3-phenylpropyl)-S-alanyl-2S,3aR,7aS-octa-hydroindol-2-carbonsäure]
Senkung des diastolischen Blutdruckes: weder Verapamil-SR allein (10 mg/kg/Tag) noch Trandolapril allein (3 mg/kg/Tag) den diastolischen Blutdruck wacher normotoner Hunde zu senken vermögen
